{
  "source": "BindingDB's records for PubMed 9536007",
  "about": "(University of Bonn, 1998)",
  "note": "Values joined by “and” are separate entries in the source; they are usually repeats but may differ in a detail not shown here. Identical values can stand only once. Counter-ions that a name gives are not always drawn.",
  "data": [
    {"target": "Nischarin (Rattus norvegicus, UniProt Q4G017)", "sequence (Q4G017 whole entry)": "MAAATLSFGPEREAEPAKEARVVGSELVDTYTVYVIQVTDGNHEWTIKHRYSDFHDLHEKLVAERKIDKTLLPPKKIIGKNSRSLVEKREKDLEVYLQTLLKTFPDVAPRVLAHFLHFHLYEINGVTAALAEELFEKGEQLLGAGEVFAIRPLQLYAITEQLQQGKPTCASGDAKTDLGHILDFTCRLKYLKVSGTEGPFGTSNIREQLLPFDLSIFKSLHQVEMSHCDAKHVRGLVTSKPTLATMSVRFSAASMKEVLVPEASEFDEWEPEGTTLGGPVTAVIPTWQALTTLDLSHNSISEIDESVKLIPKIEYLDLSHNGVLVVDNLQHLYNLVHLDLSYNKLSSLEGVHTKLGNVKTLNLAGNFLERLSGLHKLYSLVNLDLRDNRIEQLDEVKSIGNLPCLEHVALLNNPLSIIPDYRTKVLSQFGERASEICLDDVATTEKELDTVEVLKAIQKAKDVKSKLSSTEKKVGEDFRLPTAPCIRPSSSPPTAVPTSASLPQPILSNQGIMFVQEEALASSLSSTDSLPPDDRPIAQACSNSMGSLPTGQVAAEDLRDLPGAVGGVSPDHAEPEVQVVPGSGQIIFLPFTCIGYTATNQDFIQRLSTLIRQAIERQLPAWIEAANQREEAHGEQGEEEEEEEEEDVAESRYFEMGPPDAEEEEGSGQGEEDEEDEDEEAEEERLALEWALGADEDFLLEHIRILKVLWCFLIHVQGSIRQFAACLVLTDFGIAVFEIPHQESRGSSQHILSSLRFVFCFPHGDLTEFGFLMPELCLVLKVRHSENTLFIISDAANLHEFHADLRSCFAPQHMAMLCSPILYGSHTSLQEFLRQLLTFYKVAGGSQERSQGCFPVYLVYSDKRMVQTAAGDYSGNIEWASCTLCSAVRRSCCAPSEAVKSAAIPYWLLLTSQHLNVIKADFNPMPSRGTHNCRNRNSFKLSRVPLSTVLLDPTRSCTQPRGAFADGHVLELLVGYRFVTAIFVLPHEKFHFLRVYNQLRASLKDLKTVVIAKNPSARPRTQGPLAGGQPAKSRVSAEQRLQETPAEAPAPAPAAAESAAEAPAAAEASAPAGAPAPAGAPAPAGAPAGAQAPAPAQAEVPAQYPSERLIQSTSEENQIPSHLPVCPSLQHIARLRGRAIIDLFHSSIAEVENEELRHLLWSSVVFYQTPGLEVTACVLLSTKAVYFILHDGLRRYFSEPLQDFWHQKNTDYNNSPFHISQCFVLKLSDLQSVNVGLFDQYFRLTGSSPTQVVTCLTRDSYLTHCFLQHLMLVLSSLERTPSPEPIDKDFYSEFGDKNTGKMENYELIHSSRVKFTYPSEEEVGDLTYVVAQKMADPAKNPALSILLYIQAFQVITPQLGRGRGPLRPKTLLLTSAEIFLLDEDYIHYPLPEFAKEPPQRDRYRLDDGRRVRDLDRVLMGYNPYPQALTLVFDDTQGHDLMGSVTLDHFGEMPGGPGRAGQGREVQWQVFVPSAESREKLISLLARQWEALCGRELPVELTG", "values": [
      {"compound": "Clc1cccc(Cl)c1N=C1NCCN1", "note": "[2-(2,6-dichloroanilino)-2-imidazoline]", "Ki": "2.52 µM and > 10 µM"},
      {"compound": "NCCc1c[nH]cn1", "note": "[[3H]histamine]", "Ki": "> 10 µM"},
      {"compound": "CC(C)=CCN1CC[C@@]2(C)c3cc(O)ccc3C[C@@H]1[C@@H]2C", "note": "[Talwin]", "Ki": "> 10 µM"},
      {"compound": "CN/C([CH-][N+](=O)[O-])=[NH+]\\CCSCc1ccc(CN(C)C)o1", "Ki": "> 10 µM"},
      {"compound": "C[C@]12NC(Cc3ccccc31)c1ccccc12", "note": "[(5S,10S)-(+)-5-methyl-10,11-dihydro-5Hdibenzo[a,d]cyclohepten-5,10-imine]", "Ki": "> 10 µM"},
      {"compound": "COC(=O)[C@@H]1[C@H]2C[C@H]3c4[nH]c5ccccc5c4CCN3C[C@@H]2CC[C@@H]1O", "note": "[yohimbic acid methyl ester]", "Ki": "> 10 µM"},
      {"compound": "Cc1ccccc1NC(=N)Nc1ccccc1C", "note": "[CAS_97-39-2]", "Ki": "0.93 µM"},
      {"compound": "CCCN1CCC[C@@H](c2cccc(O)c2)C1", "note": "[Preclamol]", "Ki": "> 10 µM"},
      {"compound": "N=C(N)NCCCCN", "Ki": "> 10 µM"},
      {"compound": "COc1nc(C)nc(Cl)c1N=C1NCCN1", "note": "[(4-Chloro-6-methoxy-2-methyl-pyrimidin-5-yl)-imidazolidin-2-ylidene-amine]", "Ki": "> 10 µM"},
      {"compound": "O=C(CCCN1CCC(O)(c2ccc(Cl)cc2)CC1)c1ccc(F)cc1", "note": "[4-[4-(4-Chloro-phenyl)-4-hydroxy-piperidin-1-yl]-1-(4-fluoro-phenyl)-butan-1-one;propionate(HCl)]", "Ki": "0.5 µM"}
    ]}
  ]
}
